The values below come from PubChem BioAssay AID1259407 (Chemical Carcinogenesis Research Information System (CCRIS), 2018).

For this series, the system named is CCRIS mutagenicity, Ames/micronucleus/aberration tests. The series can be described thus: CCRIS mutagenicity studies.
[1] abbreviates: Test System: AMES SALMONELLA TYPHIMURIUM, Strain/Indicator: TA98, Metabolic Activation: NONE, Method: STANDARD PLATE.

Each structure is given as a SMILES string. The source made the active and inactive calls. The rule behind the calls is not given here.

For `O=Nc1ccc(NO)cc1`, the mutagenic call reads like this: (End Point: IN VITRO CHROMOSOMAL ABERRATIONS, Test System: CHL CELLS, Metabolic Activation: NONE) “active; positive (structural changes)”; (End Point: IN VITRO CHROMOSOMAL ABERRATIONS, Test System: CHL CELLS, Metabolic Activation: RAT, LIVER, S-9, SODIUM PHENOBARBITAL AND 5,6-BENZOFLAVONE) “active; positive (structural changes)”; under setting [1], “active; positive”; (Test System: AMES SALMONELLA TYPHIMURIUM, Strain/Indicator: TA98, Metabolic Activation: S-9, PHENOBARBITONE AND BETA-NAPHTHOFLAVONE, Method: STANDARD PLATE) “active; positive”; (Test System: E. COLI, Strain/Indicator: WP2 UVRA, Metabolic Activation: HAMSTER, LIVER, S-9, AROCLOR 1254, Method: STANDARD PLATE) “inactive; negative”; (Test System: E. COLI, Strain/Indicator: WP2 UVRA, Metabolic Activation: HAMSTER, LIVER, S-9, Method: STANDARD PLATE) “inactive; negative”. The mutagenic call is, setting by setting: (Test System: E. COLI, Strain/Indicator: WP2 UVRA, Metabolic Activation: MOUSE, LIVER, S-9, AROCLOR 1254, Method: STANDARD PLATE) “inactive; negative”; (Test System: E. COLI, Strain/Indicator: WP2 UVRA, Metabolic Activation: MOUSE, LIVER, S-9, Method: STANDARD PLATE) “inactive; negative”; (Test System: E. COLI, Strain/Indicator: WP2 UVRA, Metabolic Activation: NONE, Method: STANDARD PLATE) “inactive; negative”; (Test System: E. COLI, Strain/Indicator: WP2 UVRA, Metabolic Activation: RAT, LIVER, S-9, AROCLOR 1254, Method: STANDARD PLATE) “inactive; negative”; (Test System: E. COLI, Strain/Indicator: WP2 UVRA, Metabolic Activation: RAT, LIVER, S-9, Method: STANDARD PLATE) “inactive; negative”; (Test System: MOUSE LYMPHOMA, Strain/Indicator: L5178Y (HPRT), Metabolic Activation: NONE, Method: SUSPENSION/PLATE) “inactive; negative”. Also, the mutagenic call runs as follows: (Test System: MOUSE LYMPHOMA, Strain/Indicator: L5178Y (TK+/TK-), Metabolic Activation: NONE, Method: SUSPENSION/PLATE) “active; positive”; (Test System: UDS RODENT HEPATOCYTES, Strain/Indicator: THY INCORP, Metabolic Activation: NONE, Method: IN VIVO) “inactive; negative”.
Take `COCC1O[C@@H](O[C@@H]2C(COC)OC(OC)C(OC)C2OC)C(OC)C(OC)C1OC` (stereo partly specified): the mutagenic call is, setting by setting: under setting [1], “inactive; negative”; (Test System: AMES SALMONELLA TYPHIMURIUM, Strain/Indicator: TA98, Metabolic Activation: RAT, LIVER, S-9, AROCLOR 1254, Method: STANDARD PLATE) “inactive; negative”; (Test System: AMES SALMONELLA TYPHIMURIUM, Strain/Indicator: TA100, Metabolic Activation: NONE, Method: STANDARD PLATE) “inactive; negative”; (Test System: AMES SALMONELLA TYPHIMURIUM, Strain/Indicator: TA100, Metabolic Activation: RAT, LIVER, S-9, AROCLOR 1254, Method: STANDARD PLATE) “inactive; negative”; (Test System: AMES SALMONELLA TYPHIMURIUM, Strain/Indicator: TA1535, Metabolic Activation: NONE, Method: STANDARD PLATE) “inactive; negative”; (Test System: AMES SALMONELLA TYPHIMURIUM, Strain/Indicator: TA1535, Metabolic Activation: RAT, LIVER, S-9, AROCLOR 1254, Method: STANDARD PLATE) “inactive; negative”. The mutagenic call is “inactive; negative” (Test System: AMES SALMONELLA TYPHIMURIUM, Strain/Indicator: TA1537, Metabolic Activation: NONE, Method: STANDARD PLATE); “inactive; negative” (Test System: AMES SALMONELLA TYPHIMURIUM, Strain/Indicator: TA1537, Metabolic Activation: RAT, LIVER, S-9, AROCLOR 1254, Method: STANDARD PLATE); “inactive; negative” (Test System: AMES SALMONELLA TYPHIMURIUM, Strain/Indicator: TA1538, Metabolic Activation: NONE, Method: STANDARD PLATE); “inactive; negative” (Test System: AMES SALMONELLA TYPHIMURIUM, Strain/Indicator: TA1538, Metabolic Activation: RAT, LIVER, S-9, AROCLOR 1254, Method: STANDARD PLATE); “inactive; negative” (Test System: E. COLI, Strain/Indicator: WP2, Metabolic Activation: NONE, Method: STANDARD PLATE); “inactive; negative” (Test System: E. COLI, Strain/Indicator: WP2, Metabolic Activation: RAT, LIVER, S-9, AROCLOR 1254, Method: STANDARD PLATE).
